The series deals with HSD17B13. Particulars: ASO, HepaRG.

This passage reports target mRNA inhibition results from the OligoGym collection.

After the bases stand the sugars from the 5' end (letter, count) and the backbone: PS all phosphorothioate, else s phosphorothioate and o phosphodiester by linkage. Methylation of C is not given here. e = 2'-O-(2-methoxyethyl) (MOE); k = constrained ethyl (cEt); d = 2'-deoxy (DNA); m = 2'-O-methyl

“ATGCUACTTGAACAGT (sugars k3 d1 m1 d8 k3, PS)”: where the note is “1 µM”, the target mRNA inhibition worked out at 46%.

The sequence ATGTTATCTCAAGTCA (sugars k3 d10 k3, PS) showed a target mRNA inhibition (1 µM) of 79%.

Consider GGATAGAGCACATGGC (sugars k3 d10 k3, PS), for which, under “1 µM”, the target mRNA inhibition came out at 33%.

As for CACAAGCACACTGTAA (sugars k3 d10 k3, PS), the target mRNA inhibition (1 µM) is 2%.

“GAAGUTAGTATAGTTA (sugars k3 d1 m1 d8 k3, PS)” displayed a target mRNA inhibition (1 µM) of 43%.

In the case of TAATTTTCAGATCCCG (sugars k3 d10 k3, PS), the target mRNA inhibition is 0% (0.02 µM); 9% (0.078 µM); 41% (0.313 µM); 75% (1 µM); 62% (1.25 µM); 89% (5 µM).

GTACAGTAGGCAGTTT (sugars k3 d10 k3, PS) had a target mRNA inhibition (1 µM) of 50%.

On to “ATCTUAAGATACCCAG (sugars k3 d1 m1 d8 k3, PS)”, for which the target mRNA inhibition (1 µM) came to 55%.

In the case of GTAATCAGTTTTCCTC (sugars k3 d10 k3, PS), the target mRNA inhibition was found to be 0% (0.02 µM); 0% (0.078 µM); 11% (0.313 µM); 79% (1 µM); 36% (1.25 µM); 73% (5 µM).

As for AGTATGTTTATGTAAG (sugars k3 d10 k3, PS), the target mRNA inhibition (1 µM) was found to be 48%.

Sequence “TCTGGGACCAAGGATA (sugars k3 d9 k3 e1, PS)” registered a target mRNA inhibition (1 µM) of 57%.

As for “TGAAGTTAGTATAGTT (sugars k3 d9 k3 e1, PS)”, the target mRNA inhibition (1 µM) is 70%.

Sequence CTATAATACATTAGCA (sugars k3 d10 k3, PS) returned a target mRNA inhibition (1 µM) of 3%.

With “ACAGTCTTAAACCTTC (sugars k3 d9 k3 e1, PS)”, the target mRNA inhibition is 13% (0.02 µM); 31% (0.078 µM); 52% (0.313 µM); 73% (1 µM); 71% (1.25 µM); 80% (5 µM).

GCTGTAAGAGTCAGTA (sugars k3 d10 k3, PS) came in with a target mRNA inhibition (0.02 µM) of 5%; a target mRNA inhibition (0.078 µM) of 0%; a target mRNA inhibition (0.313 µM) of 2%; a target mRNA inhibition (1 µM) of 89%; a target mRNA inhibition (1.25 µM) of 57%; a target mRNA inhibition (5 µM) of 82%.

Sequence TTATGATAATTTGGTG (sugars k3 d10 k3, PS) registered a target mRNA inhibition (1 µM) of 0%.

In the case of GATGTTGACCTCAAAT (sugars k3 d10 k3, PS), where the note is “1 µM”, the target mRNA inhibition is 0%.

In the case of TTAGTATAGTTATCTT (sugars k3 d10 k3, PS), where the note is “1 µM”, the target mRNA inhibition was 37%.

In the case of AATCCCAACCAAACTT (sugars k3 d10 k3, PS), the target mRNA inhibition (1 µM) is 23%.

“TATTATGTGATTGAGT (sugars k3 d1 m1 d8 k3, PS)” came in with a target mRNA inhibition (1 µM) of 28%.

As for TATTCCCAACGCAACA (sugars k3 d10 k3, PS), the target mRNA inhibition (1 µM) was found to be 62%.

Turning to TAGAATAGTCTTCAGC (sugars k3 d10 k3, PS), the target mRNA inhibition (0.02 µM) was found to be 0%; the target mRNA inhibition (0.078 µM) was found to be 0%; the target mRNA inhibition (0.313 µM) is 16%; the target mRNA inhibition (1 µM) is 70%; the target mRNA inhibition (1.25 µM) came to 52%; the target mRNA inhibition (5 µM) stood at 77%.

In turn, CAACGACTCCAAGTAG (sugars k3 d10 k3, PS) yielded a target mRNA inhibition (1 µM) of 0%.

“AATATGGGATGAGGTA (sugars k3 d9 k3 e1, PS)” gave a target mRNA inhibition (1 µM) of 47%.

In the case of TCAGATCCCGTTCTTG (sugars k3 d10 k3, PS), where the note is “1 µM”, the target mRNA inhibition worked out at 59%.

For “TGTCTAAACATCTCTG (sugars kkdddddddddkekek, PS)”, the target mRNA inhibition (1 µM) was determined as 59%.

In the case of GATGCTAAAAGCTCAC (sugars k3 d10 k3, PS), the target mRNA inhibition (1 µM) worked out at 46%.

Consider AAGGCTTATGAAGTTA (sugars k3 d10 k3, PS), for which the target mRNA inhibition (1 µM) was determined as 61%.

In the case of TATCAATGCCTTAGCC (sugars k3 d10 k3, PS), where the note is “1 µM”, the target mRNA inhibition was 15%.

The sequence CCTATTTGTAATATTG (sugars k3 d10 k3, PS) had a target mRNA inhibition (1 µM) of 0%.

As for AACAGTTTAGATTGCA (sugars k3 d10 k3, PS), under “1 µM”, the target mRNA inhibition is 71%.

Consider CTCTAATGTTTCTTGA (sugars k3 d10 k3, PS), for which the target mRNA inhibition (1 µM) was 53%.

The sequence TGCGAGAAATCTAAGA (sugars k3 d10 k3, PS) showed a target mRNA inhibition (1 µM) of 50%.

On to AGTCTTAAACCTTCCC (sugars k3 d10 k3, PS), for which the target mRNA inhibition is, setting by setting: (0.02 µM) 0%; (0.078 µM) 0%; (0.313 µM) 21%; (1 µM) 77%; (1.25 µM) 65%; (5 µM) 85%.

Sequence TAGAATACGCTGAGAG (sugars k3 d10 k3, PS) had a target mRNA inhibition (1 µM) of 47%.

The sequence GCCTAAACAAACACTA (sugars k3 d10 k3, PS) displayed a target mRNA inhibition (1 µM) of 37%.

Sequence “ATGTATCTTATAAGAC (sugars k3 d1 m1 d8 k3, PS)” returned a target mRNA inhibition (1 µM) of 3%.

For the sequence “ATTGTCTAAACATCTC (sugars k3 d9 k3 e1, PS)”, the target mRNA inhibition (1 µM) was 71%.

In the case of TAATCACAAGTAAGGT (sugars k3 d10 k3, PS), where the note is “1 µM”, the target mRNA inhibition worked out at 54%.

Consider “ATGTTTATGTAAGCAC (sugars k3 d9 k3 e1, PS)”, for which the target mRNA inhibition is 6% (0.02 µM); 0% (0.078 µM); 39% (0.313 µM); 73% (1 µM); 66% (1.25 µM); 70% (5 µM).

In the case of “CAGATTATTATGTGAT (sugars k3 d9 k3 e1, PS)”, the target mRNA inhibition (1 µM) was determined as 38%.

Turning to ATTTTACTGGGATACT (sugars k3 d10 k3, PS), the target mRNA inhibition (1 µM) stood at 49%.

The sequence TGTCTCCAATACAGGC (sugars k3 d10 k3, PS) registered a target mRNA inhibition (1 µM) of 39%.

Regarding TGAGTAAACGACTCTG (sugars k3 d10 k3, PS), the target mRNA inhibition (1 µM) turned out to be 23%.

Turning to “CTACTTGAACAGTCTT (sugars kkdddddddddkekek, PS)”, for the setting “1 µM”, the target mRNA inhibition stood at 47%.

As to TTGTTACATCACCCAC (sugars k3 d10 k3, PS), the target mRNA inhibition (1 µM) worked out at 34%.

With AATCAATCTGTCTGAA (sugars k3 d10 k3, PS), the target mRNA inhibition (1 µM) worked out at 34%.

AGCTATAGGTAGCTAA (sugars k3 d10 k3, PS) gave a target mRNA inhibition (1 µM) of 0%.

Under “1 µM”, AATATCAGCCATCTAG (sugars k3 d10 k3, PS) had a target mRNA inhibition of 24%.

On to GTCGGTCACCTTTCAT (sugars k3 d10 k3, PS), for which the target mRNA inhibition is, setting by setting: (0.02 µM) 16%; (0.078 µM) 37%; (0.313 µM) 57%; (1 µM) 85%; (1.25 µM) 82%; (5 µM) 90%.

GAGGATAGTGAACATA (sugars k3 d10 k3, PS): the target mRNA inhibition (1 µM) was 50%.

The sequence “TTTAAAATAGAGTCGG (sugars k3 d9 k3 e1, PS)” returned a target mRNA inhibition (1 µM) of 58%.

Turning to GACAGACCAAGTAGCT (sugars k3 d10 k3, PS), under “1 µM”, the target mRNA inhibition is 39%.

Take CAGCATTGATTCGAAA (sugars k3 d10 k3, PS): the target mRNA inhibition runs as follows: (0.02 µM) 2%; (0.078 µM) 0%; (0.313 µM) 26%; (1 µM) 69%; (1.25 µM) 56%; (5 µM) 65%.

For the sequence GTGCTTTTGTGATCCA (sugars k3 d10 k3, PS), the target mRNA inhibition (1 µM) was 62%.

Consider “TTCTGTGGCATGGCTA (sugars k3 d9 k3 e1, PS)”, for which, under “1 µM”, the target mRNA inhibition is 59%.

TAATGAATCATGATTG (sugars k3 d10 k3, PS) had a target mRNA inhibition (1 µM) of 2%.

“ATACATTAGCAAGCTA (sugars k3 d9 k3 e1, PS)” returned a target mRNA inhibition (1 µM) of 48%.

As for TGTAAGCTGAGAGTTC (sugars k3 d10 k3, PS), the target mRNA inhibition (1 µM) was 45%.

Sequence AAGAGGATAGTCCATG (sugars k3 d10 k3, PS) displayed a target mRNA inhibition (1 µM) of 65%.

“AGAGGATAGTCCATGC (sugars kkdddddddddkekek, PS)”: the target mRNA inhibition (1 µM) stood at 70%.

With AAATGAGGCGGCACTC (sugars k3 d10 k3, PS), the target mRNA inhibition (1 µM) is 20%.

For TACCTTATTAATATCC (sugars k3 d10 k3, PS), the target mRNA inhibition (1 µM) turned out to be 54%.

Consider GAATACGCTGAGAGTT (sugars k3 d10 k3, PS), for which the target mRNA inhibition (1 µM) is 11%.

On to CATTATTCACCACGAT (sugars k3 d10 k3, PS), for which the target mRNA inhibition (1 µM) was 33%.

Sequence AACTAGGAAGTGATCC (sugars k3 d10 k3, PS) gave a target mRNA inhibition (1 µM) of 58%.

TCAACCTGCACACCAT (sugars k3 d10 k3, PS): the target mRNA inhibition is, setting by setting: (0.02 µM) 14%; (0.078 µM) 32%; (0.313 µM) 47%; (1 µM) 72%; (1.25 µM) 71%; (5 µM) 84%.

In the case of CTATCAGAACAGTTCA (sugars k3 d10 k3, PS), the target mRNA inhibition (1 µM) turned out to be 48%.

For the setting “1 µM”, AGCTAAGAGACACTTC (sugars k3 d10 k3, PS) displayed a target mRNA inhibition of 41%.

As to CACTAATGAATCATGA (sugars k3 d10 k3, PS), the target mRNA inhibition (1 µM) turned out to be 25%.

In turn, “AAACATCTCTGGGACC (sugars kkdddddddddkekek, PS)” returned a target mRNA inhibition (1 µM) of 36%.

In the case of ACCACATACGCATGCG (sugars k3 d10 k3, PS), the target mRNA inhibition (1 µM) is 45%.

Consider GGATGATGTTCATGGC (sugars k3 d10 k3, PS), for which the target mRNA inhibition is, setting by setting: (0.02 µM) 4%; (0.078 µM) 40%; (0.313 µM) 75%; (1 µM) 82%; (1.25 µM) 80%; (5 µM) 76%.
